# Reference: the supplement of paper PMC13380429
# Experiments:
# Settings in all cases: 72 h
# [1] = system: Caco-2; assay: cell viability relative to DMSO; higher = less toxic
# [2] = system: Calu-3; assay: as above
# [3] = system: HepG2; assay: as above
# [4] = system: U2OS; assay: as above
# [5] = system: Vero E6; assay: as above
# [6] = system: Caco-2; assay: relative viability EC50 (midpoint between 100% and the lowest measured viability); higher = less toxic
# [7] = system: Calu-3; assay: as above
# [8] = system: HepG2; assay: as above
# [9] = system: U2OS; assay: as above
# [10] = system: Vero E6; assay: as above
# [11] = system: Caco-2; assay: drug sensitivity score (DSS) for viability; higher = more toxic; extreme values may be limits of the assay
# [12] = system: Calu-3; assay: as above
# [13] = system: HepG2; assay: as above
# [14] = system: U2OS; assay: as above
# [15] = system: Vero E6; assay: as above
Structure (SMILES),cell viability ([1]; 1 nM) [%],cell viability ([1]; 10 nM) [%],cell viability ([1]; 100 nM) [%],cell viability ([1]; 1000 nM) [%],cell viability ([1]; 10000 nM) [%],cell viability ([2]; 1 nM) [%],cell viability ([2]; 10 nM) [%],cell viability ([2]; 100 nM) [%],cell viability ([2]; 1000 nM) [%],cell viability ([2]; 10000 nM) [%],cell viability ([3]; 1 nM) [%],cell viability ([3]; 10 nM) [%],cell viability ([3]; 100 nM) [%],cell viability ([3]; 1000 nM) [%],cell viability ([3]; 10000 nM) [%],cell viability ([4]; 1 nM) [%],cell viability ([4]; 10 nM) [%],cell viability ([4]; 100 nM) [%],cell viability ([4]; 1000 nM) [%],cell viability ([4]; 10000 nM) [%],cell viability ([5]; 1 nM) [%],cell viability ([5]; 10 nM) [%],cell viability ([5]; 100 nM) [%],cell viability ([5]; 1000 nM) [%],cell viability ([5]; 10000 nM) [%],relative viability EC50 [6] [µM],relative viability EC50 [7] [µM],relative viability EC50 [8] [µM],relative viability EC50 [9] [µM],relative viability EC50 [10] [µM],drug sensitivity score [11],drug sensitivity score [12],drug sensitivity score [13],drug sensitivity score [14],drug sensitivity score [15]
O=C1CCC(N2C(=O)c3ccccc3C2=O)C(=O)N1 (stereo not given) [thalidomide],89.6,91.9,90.9,94.7,94.9,89.8,92.1,92.2,93.6,97.9,102,99.8,89.4,99.1,97.8,101,95.4,100,95,98.6,103,102,93.9,97.3,96.1,> 10,> 10,> 10,> 10,> 10,0,0,0,0,0
Clc1ccccc1CN1CCc2sccc2C1 [ticlopidine],91.9,102,93.5,93.4,99.8,101,98.3,99.6,91.7,101,97.5,93,107,106,94.9,98.9,91.5,97.2,102,108,89,97.9,98,95.6,105,> 10,> 10,> 10,> 10,> 10,0,0,0,0,0
NC1CCN(c2nc3c(cc2F)c(=O)c(C(=O)O)cn3-c2ccc(F)cc2F)C1 (stereo not given) [tosufloxacin],96,99.9,111,99.4,81.7,95.1,103,101,103,124,88.1,87.6,95.9,96.3,78.6,97.3,104,98.6,102,95,101,101,108,101,99.7,> 10,> 10,> 10,> 10,> 10,0.5,0,0,0,0
N[C@@H](Cc1c[nH]c2ccccc12)C(=O)O [tryptophan],105,96.6,85.7,110,97.5,106,97.1,107,107,103,88.3,95.1,103,88.9,100,97.2,101,101,99.1,98.1,99.7,108,94.4,91.3,99.8,> 10,> 10,> 10,> 10,> 10,0,0,0,0,0
CC(C)(C)c1cc(C=C(C#N)C#N)cc(C(C)(C)C)c1O [tyrphostin-A9],96.5,98.3,95.8,70.1,20.5,97.4,96.3,99,92.8,44.1,104,101,98.7,74.3,8.9,106,97.9,100,90.6,22.4,100,106,97.8,97.2,17.5,1.29,2.12,1.45,2.18,2.91,8.1,4.2,8.9,5.9,5
CCCCC(=O)OCC(=O)[C@]1(O)Cc2c(O)c3c(c(O)c2[C@@H](O[C@H]2C[C@H](NC(=O)C(F)(F)F)[C@H](O)[C@H](C)O2)C1)C(=O)c1c(OC)cccc1C3=O [valrubicin],95.9,96.8,92.5,72.3,23.3,90.7,95.4,89.7,60.9,26.7,95.7,101,77.9,33.6,0.6,105,96.7,103,70.3,6.1,98.6,102,107,92.3,29.2,1.36,0.769,0.43,1.36,2.28,7.5,9,15.2,9.5,5.2
CCCCC(=O)N(Cc1ccc(-c2ccccc2-c2nnn[nH]2)cc1)[C@H](C(=O)O)C(C)C [valsartan],92,94.3,88.6,102,96,103,108,95.6,102,90.9,107,101,93.4,97.3,103,101,98.8,96.9,97.2,101,101,99.8,98.1,100,99.9,> 10,> 10,> 10,> 10,> 10,0,0,0,0,0
COc1ccc(N(C)c2nc(C)nc3ccccc23)cc1 [verubulin],103,76.2,40.5,38.3,34.6,94.9,77.2,46.6,42.3,40.3,108,52.4,34.3,36.3,41.4,102,72.6,17.3,18,18.3,93,32.6,21.4,23.9,27.9,0.0156,0.0151,0.0069,0.0133,0.0037,22.4,20.2,26.2,29.6,33.5
OCC(CO)N[C@H]1C[C@](O)(CO)[C@@H](O)[C@H](O)[C@H]1O [voglibose],94.4,102,93.7,98,106,97.8,106,98.4,101,108,98.2,108,102,100,111,103,100,100,98.2,97.5,97,95.1,94.3,93.8,104,> 10,> 10,> 10,> 10,> 10,0,0,0,0,0
COc1cccc([C@H](O)C2CCN(CCc3ccc(F)cc3)CC2)c1OC [volinanserin],101,97.3,101,90.8,88.9,90.9,104,99.9,101,95.1,99.9,99.9,95.8,101,91.3,103,96.2,99.7,98.6,98.5,102,99.9,98.9,101,96.1,> 10,> 10,> 10,> 10,> 10,0.2,0,0,0,0
CC(=O)CC(c1ccccc1)c1c(O)c2ccccc2oc1=O (stereo not given) [warfarin],98,108,101,95.1,99.7,100,91.9,104,97.8,115,100,85.7,94.8,98.5,107,96,97.2,98.3,102,94.9,101,96.9,105,103,97.1,> 10,> 10,> 10,> 10,> 10,0,0,0,0,0
Cc1cc(-c2ccc(CC(=O)Nc3ccc(-c4cccnc4)cc3)cc2)ccn1 [wnt-c59],104,94.8,109,96.1,85,106,106,101,98,83.6,96.3,110,94.5,103,81.8,93.9,93.6,94.8,92.9,91.3,97.1,101,100,99.5,102,> 10,> 10,> 10,> 10,> 10,0.6,0.5,0.3,0,0
